Data taken from PubChem BioAssay AID2060360 (Molecular Pharmacology Branch, DTP, NCI, 2025).

Test system: 282377-053-R-J1-PDC tumor spheroids, viability
Test: Anticancer human tumor 282377-053-R-J1-PDC patient-derived colon adenocarcinoma cell line growth inhibition [TAK]
Details: spheroids with HUVEC and MSC; for IC50: curve of first compound; for viability, T/C: stronger effect = lower value
Description: Combinatorial screen of targeted agents with TAK-243 and ipatasertib in multi-cell type tumor spheroids
A high-throughput screen of multi-cell type tumor spheroids was designed to identify active combinations of targeted small molecules and TAK-243 or ipatasertib. Complex spheroids include a stromal component modeled by human endothelial cells (HUVEC) and fibroblasts modeled by human mesenchymal stem cells (MSCs). The concentration ranges selected for each drug and investigational agent were based upon clinically achievable concentrations if the clinical Cmax of the agent was known.
Compounds. The drugs and investigational agents: TAK-243 (785004), ipatasertib (767898), everolimus (733504), selumetinib (741078), bortezomib (756655), trametinib (758246), ixazomib (758254), vemurafenib (761431), dabrafenib (764134), sapanisertib (764658), alpelisib (765974), and copanlisib (816437), were obtained from the National Cancer Institute (NCI) Developmental Therapeutics Program Chemical Repository. The FDA-approved anticancer drug set is available from the NCI Developmental Therapeutics Program. […] The stock solutions were prepared in dimethyl sulfoxide (DMSO, Sigma-Aldrich, St. Louis, MO, cat. D2650) at 800-fold the tested concentration and stored at -70 degrees C prior to their use. All drugs and investigational agents were tested over a range starting from a high concentration at or near the clinical Cmax and decreasing in half-log increments. If the clinical Cmax for an agent had not been determined, the highest concentration tested was 10 microM.
NCI60 Cell Culture. NCI60 cell lines were obtained from the NCI Developmental Therapeutics Program Tumor Repository. For each lot of cells, the Repository performed Applied Biosystems AmpFLSTR Identifiler testing with PCR amplification to confirm consistency with the published Identifier STR profile for each cell line. Cells were kept in continuous culture for no more than 20 passages. The optimal seeding densities for each of the cell lines at each time point assessed were determined prior to performing the concentration response studies. Briefly, the NCI60 human tumor lines were grown as monolayers in RPMI 1640 medium supplemented with 10% FBS and 2 mmol/L L-glutamine.
An additional 2 lines were from the NCI60 cell line panel including melanomas, MALME-3M and SK-MEL-2. Pooled donor human umbilical vein endothelial cells (HUVEC, Lonza, cat. CC-2519) and human mesenchymal stem cells (hMSC, Lonza, cat. PT-2501) were purchased from Lonza (Walkersville, MD).
PDMR cell lines were grown in complete medium (DC medium): Dulbecco's modified Eagle's medium (DMEM)/F12 supplemented with 5% fetal bovine serum (FBS), 2 mM L-glutamine, 100 U/mL penicillin and 100 µg/ml streptomycin, 0.4 µg/ml hydrocortisone, 10 ng/ml epidermal growth factor (EGF) recombinant human protein, 24 µg/mL adenine, and 0.1 mg/mL primocin. During culture from frozen stock vials, PDMR cells were cultured in the same medium containing 10 µM Y-27632 (see Table 3). The PDCs were cultured in complete DMEM/F12 media without 10 microM Y-27632 dihydrochloride for at least two passages prior to the screen. The pooled donor HUVEC and hMSC were cultured in endothelial cell growth medium 2 (PromoCell, Heidelberg, Germany, cat. C-22011) and mesenchymal stem cell growth medium 2 (PromoCell, cat. C-28009), respectively. For all experiments, HUVEC and hMSC were used at passages </=5.
For the pre-screen, cell seeding densities were determined from a titration spanning the range from 5,000 to 313 cells per well. The mct-spheroids including 60% malignant cells, 25% HUVEC and 15% MSC dispensed as a mixture into U-bottom Ultra-Low Attachment 384-well plates (Corning, NY)
High-throughput Drug Combination Screening.
Prior to their inoculation into 384-well plates, malignant cells, HUVEC, and hMSC were removed from T flasks using TrypLE express (Thermo Fisher Scientific, cat. 12605036) and harvested by centrifugation for 5 min at 233 x g. […]
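Further: spheroids exposed to drugs for seven days before readout.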

SMILES: COC1CC2CCC(C)C(O)(O2)C(=O)C(=O)N2CCCCC2C(=O)OC(C(C)CC2CCC(OCCO)C(OC)C2)CC(=O)C(C)C=C(C)C(O)C(OC)C(=O)C(C)CC(C)C=CC=CC=C1C (stereo not given) + CC(C)NCC(C(=O)N1CCN(c2ncnc3c2C(C)CC3O)CC1)c1ccc(Cl)cc1
- IC50 (second compound 0.3 µM): > 100 nM
- IC50 (second compound 0.949 µM): > 100 nM
- IC50 (second compound 3 µM): > 100 nM
- IC50 (second compound 9.49 µM): > 100 nM
- IC50 (second compound 30 µM): 8.56 nM
- viability, T/C (second compound 0.3 µM, first compound 0.000316 µM): 93.1%
- viability, T/C (second compound 0.3 µM, first compound 0.001 µM): 91.7%
- viability, T/C (second compound 0.3 µM, first compound 0.00316 µM): 94%
- viability, T/C (second compound 0.3 µM, first compound 0.01 µM): 95%
- viability, T/C (second compound 0.3 µM, first compound 0.0316 µM): 93.7%
- viability, T/C (second compound 0.3 µM, first compound 0.1 µM): 91.4%
- viability, T/C (second compound 0.949 µM, first compound 0.000316 µM): 93.3%
- viability, T/C (second compound 0.949 µM, first compound 0.001 µM): 87%
- viability, T/C (second compound 0.949 µM, first compound 0.00316 µM): 91.8%
- viability, T/C (second compound 0.949 µM, first compound 0.01 µM): 91.8%
- viability, T/C (second compound 0.949 µM, first compound 0.0316 µM): 87.7%
- viability, T/C (second compound 0.949 µM, first compound 0.1 µM): 89.4%
- viability, T/C (second compound 3 µM, first compound 0.000316 µM): 82.2%
- viability, T/C (second compound 3 µM, first compound 0.001 µM): 87.6%
- viability, T/C (second compound 3 µM, first compound 0.00316 µM): 80.9%
- viability, T/C (second compound 3 µM, first compound 0.01 µM): 82.2%
- viability, T/C (second compound 3 µM, first compound 0.0316 µM): 82.2%
- viability, T/C (second compound 3 µM, first compound 0.1 µM): 79.1%
- viability, T/C (second compound 9.49 µM, first compound 0.000316 µM): 81.2%
- viability, T/C (second compound 9.49 µM, first compound 0.001 µM): 77.8%
- viability, T/C (second compound 9.49 µM, first compound 0.00316 µM): 73.5%
- viability, T/C (second compound 9.49 µM, first compound 0.01 µM): 74.9%
- viability, T/C (second compound 9.49 µM, first compound 0.0316 µM): 65.8%
- viability, T/C (second compound 9.49 µM, first compound 0.1 µM): 60.4%
- viability, T/C (second compound 30 µM, first compound 0.000316 µM): 61.6%
- viability, T/C (second compound 30 µM, first compound 0.001 µM): 64.3%
- viability, T/C (second compound 30 µM, first compound 0.00316 µM): 55.8%
- viability, T/C (second compound 30 µM, first compound 0.01 µM): 48.3%
- viability, T/C (second compound 30 µM, first compound 0.0316 µM): 39.9%
- viability, T/C (second compound 30 µM, first compound 0.1 µM): 31%
